Converted amounts (≈) assume the structure as drawn.
Legend:
DNA gyrase subunit A [1] = biological target: DNA gyrase subunit A (Escherichia coli K-12, UniProt P0AES4); test: Inhibition of Escherichia coli ATCC 25922 DNA gyrase A assessed as reduction in enzyme-mediated supercoiling of relaxed pBR322 DNA by ethidium bromide staining based gel electrophoresis method
DNA gyrase subunit A [2] = biological target: DNA gyrase subunit A (Staphylococcus aureus, UniProt P20831); test: Inhibition of Staphylococcus aureus ATCC 29213 DNA gyrase A assessed as reduction in enzyme-mediated supercoiling of relaxed pBR322 DNA by ethidium bromide staining based gel electrophoresis method
DNA gyrase subunit A (Staphylococcus aureus, UniProt P20831), sequence (P20831 whole entry): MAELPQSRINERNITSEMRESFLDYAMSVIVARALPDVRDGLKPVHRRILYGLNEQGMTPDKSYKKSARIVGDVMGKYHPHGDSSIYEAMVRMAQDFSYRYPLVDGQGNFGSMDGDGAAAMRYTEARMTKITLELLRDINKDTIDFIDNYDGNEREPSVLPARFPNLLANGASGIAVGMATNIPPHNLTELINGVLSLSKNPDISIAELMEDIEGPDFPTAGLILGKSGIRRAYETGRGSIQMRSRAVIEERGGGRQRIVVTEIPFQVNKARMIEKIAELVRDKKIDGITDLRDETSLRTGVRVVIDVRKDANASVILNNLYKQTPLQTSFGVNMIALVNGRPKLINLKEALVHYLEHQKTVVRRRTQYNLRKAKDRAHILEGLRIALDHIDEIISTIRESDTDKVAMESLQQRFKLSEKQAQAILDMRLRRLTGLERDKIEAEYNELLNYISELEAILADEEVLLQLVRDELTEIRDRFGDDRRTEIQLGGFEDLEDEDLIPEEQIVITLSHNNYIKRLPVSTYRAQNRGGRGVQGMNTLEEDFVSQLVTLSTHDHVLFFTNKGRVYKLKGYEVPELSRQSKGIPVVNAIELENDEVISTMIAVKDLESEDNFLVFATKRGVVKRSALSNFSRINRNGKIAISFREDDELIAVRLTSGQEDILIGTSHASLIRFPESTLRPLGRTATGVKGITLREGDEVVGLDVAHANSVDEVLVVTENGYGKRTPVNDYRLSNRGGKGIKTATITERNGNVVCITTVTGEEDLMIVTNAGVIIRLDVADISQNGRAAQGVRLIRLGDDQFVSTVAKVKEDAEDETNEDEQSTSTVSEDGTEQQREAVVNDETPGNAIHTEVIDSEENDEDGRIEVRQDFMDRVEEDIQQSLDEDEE

[3] = biological target: T1, DNA topoisomerase 4 subunit A (Escherichia coli K-12, UniProt P0AFI2); test: Inhibition of Escherichia coli ATCC 25922 DNA topoisomerase 4 subunit ParC assessed as reduction in decatenation of kinetoplast DNA incubated for 30 mins by ethidium bromide staining based gel electrophoresis method
T1 sequence (P0AFI2 whole entry): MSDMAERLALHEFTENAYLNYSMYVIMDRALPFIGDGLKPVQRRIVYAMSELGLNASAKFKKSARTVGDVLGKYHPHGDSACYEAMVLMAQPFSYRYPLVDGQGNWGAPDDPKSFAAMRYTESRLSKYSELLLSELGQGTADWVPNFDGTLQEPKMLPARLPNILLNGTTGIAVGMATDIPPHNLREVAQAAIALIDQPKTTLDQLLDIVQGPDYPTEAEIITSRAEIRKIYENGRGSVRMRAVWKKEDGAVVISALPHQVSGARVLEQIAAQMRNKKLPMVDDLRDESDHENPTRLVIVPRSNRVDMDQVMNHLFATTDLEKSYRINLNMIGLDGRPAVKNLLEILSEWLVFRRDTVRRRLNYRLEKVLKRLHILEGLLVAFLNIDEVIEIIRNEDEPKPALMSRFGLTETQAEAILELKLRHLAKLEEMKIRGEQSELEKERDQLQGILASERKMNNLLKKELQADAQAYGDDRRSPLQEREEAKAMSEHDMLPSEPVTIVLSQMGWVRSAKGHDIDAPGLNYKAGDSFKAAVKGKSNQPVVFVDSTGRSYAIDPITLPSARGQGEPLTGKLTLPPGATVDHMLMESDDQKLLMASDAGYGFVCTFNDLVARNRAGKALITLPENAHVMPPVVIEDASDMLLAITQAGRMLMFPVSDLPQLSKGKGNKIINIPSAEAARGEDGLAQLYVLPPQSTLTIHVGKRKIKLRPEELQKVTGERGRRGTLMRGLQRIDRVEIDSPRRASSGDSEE

[4] = biological target: DNA topoisomerase 4 subunit A (Staphylococcus aureus, UniProt P0C1U9); test: Inhibition of Staphylococcus aureus ATCC 29213 DNA topoisomerase 4 subunit ParC assessed as reduction in decatenation of kinetoplast DNA incubated for 30 mins by ethidium bromide staining based gel electrophoresis method
DNA topoisomerase 4 subunit A (Staphylococcus aureus, UniProt P0C1U9), sequence (P0C1U9 whole entry): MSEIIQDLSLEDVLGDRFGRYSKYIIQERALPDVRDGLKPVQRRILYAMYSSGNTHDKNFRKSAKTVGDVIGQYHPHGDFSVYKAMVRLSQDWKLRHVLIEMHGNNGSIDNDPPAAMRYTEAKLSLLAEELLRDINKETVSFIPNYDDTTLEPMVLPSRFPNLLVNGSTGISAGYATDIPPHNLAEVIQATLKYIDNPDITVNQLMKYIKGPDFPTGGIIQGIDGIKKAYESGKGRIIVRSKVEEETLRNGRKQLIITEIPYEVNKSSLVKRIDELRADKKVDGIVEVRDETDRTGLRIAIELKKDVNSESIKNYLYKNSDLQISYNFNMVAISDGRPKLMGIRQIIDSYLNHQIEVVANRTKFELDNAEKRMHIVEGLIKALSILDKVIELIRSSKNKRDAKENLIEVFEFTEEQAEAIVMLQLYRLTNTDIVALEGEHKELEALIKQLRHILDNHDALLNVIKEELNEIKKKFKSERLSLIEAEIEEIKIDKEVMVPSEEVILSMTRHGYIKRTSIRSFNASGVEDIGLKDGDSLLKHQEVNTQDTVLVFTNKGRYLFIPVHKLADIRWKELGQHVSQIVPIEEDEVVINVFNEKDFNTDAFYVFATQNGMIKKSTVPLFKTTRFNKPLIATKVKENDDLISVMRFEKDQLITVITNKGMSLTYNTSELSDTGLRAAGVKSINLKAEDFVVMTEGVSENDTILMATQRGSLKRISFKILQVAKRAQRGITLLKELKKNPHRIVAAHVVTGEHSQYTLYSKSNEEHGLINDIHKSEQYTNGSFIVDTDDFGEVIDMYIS

Staphylococcus aureus [5] = test: Antibacterial activity against Staphylococcus aureus ATCC 29213 after 16 to 24 hrs by broth microdilution method; type: functional
Staphylococcus aureus [6] = test: Antibacterial activity against Staphylococcus aureus BAA-1720 after 16 to 24 hrs by broth microdilution method; type: functional
Escherichia coli = test: Antibacterial activity against Escherichia coli ATCC 25922 after 16 to 24 hrs by broth microdilution method; type: functional
Pseudomonas aeruginosa = test: Antibacterial activity against Pseudomonas aeruginosa ATCC 27853 after 16 to 24 hrs by CLSI method; type: functional

DNA gyrase subunit A (Escherichia coli K-12, UniProt P0AES4), sequence (P0AES4 whole entry): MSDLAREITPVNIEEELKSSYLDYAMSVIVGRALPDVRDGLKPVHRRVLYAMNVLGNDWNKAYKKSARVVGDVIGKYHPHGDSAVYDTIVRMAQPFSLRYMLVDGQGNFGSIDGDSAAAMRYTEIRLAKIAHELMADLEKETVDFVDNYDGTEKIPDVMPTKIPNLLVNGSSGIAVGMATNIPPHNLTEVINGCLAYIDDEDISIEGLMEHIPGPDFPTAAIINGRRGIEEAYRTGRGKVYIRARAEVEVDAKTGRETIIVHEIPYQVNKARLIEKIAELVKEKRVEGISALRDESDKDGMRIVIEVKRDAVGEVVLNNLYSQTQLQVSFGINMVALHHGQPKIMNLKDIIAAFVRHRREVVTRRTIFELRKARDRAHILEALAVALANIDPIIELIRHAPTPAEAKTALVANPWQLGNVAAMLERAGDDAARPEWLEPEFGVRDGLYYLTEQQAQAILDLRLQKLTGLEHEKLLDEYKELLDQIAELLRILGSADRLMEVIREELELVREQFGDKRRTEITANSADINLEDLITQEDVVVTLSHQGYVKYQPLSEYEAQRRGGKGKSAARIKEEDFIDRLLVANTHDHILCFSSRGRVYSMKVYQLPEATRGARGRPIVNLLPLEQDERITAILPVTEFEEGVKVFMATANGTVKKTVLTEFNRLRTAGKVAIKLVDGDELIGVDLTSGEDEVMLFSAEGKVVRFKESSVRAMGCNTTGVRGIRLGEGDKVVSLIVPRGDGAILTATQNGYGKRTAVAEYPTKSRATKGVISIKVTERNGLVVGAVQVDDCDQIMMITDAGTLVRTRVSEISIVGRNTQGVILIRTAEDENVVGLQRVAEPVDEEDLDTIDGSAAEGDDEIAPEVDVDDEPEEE

Row | Compound | IC50 (DNA gyrase subunit A [1]) [µM] | IC50 (DNA gyrase subunit A [2]) [µM] | IC50 [3] [µM] | IC50 [4] [µM] | MIC (Staphylococcus aureus [5]) [µg/mL] | MIC (Staphylococcus aureus [6]) [µg/mL] | MIC (Escherichia coli) [µg/mL] | MIC (Pseudomonas aeruginosa) [µg/mL]
1 | COc1cc2ccccc2c(N2CCN(CCCNc3cc(=O)oc4ccccc34)CC2)n1 | 66 | 43.3 | 2.4 | 137 | – | – | – | –
2 | O=c1cc(N[C@H]2C[C@@H](N3CCN(c4nccc5ccccc45)CC3)C2)c2ccccc2o1 | 1.1 | 1.2 | 0.9 | > 100 | – | – | – | –
3 | O=c1cc(NCCCN2CCN(c3nccc4ccc(F)cc34)CC2)c2ccccc2o1 | 0.8 | 2.8 | 1.7 | 11.8 | – | – | – | –
4 | O=c1cc(NCCCN2CCN(c3nccc4ncccc34)CC2)c2ccccc2o1 | 40.6 | 26.8 | 29.3 | 83.8 | – | – | – | –
5 | O=c1cc(NCCCN2CCN(c3nccc4ccc(F)cc34)CC2)c2c(o1)CCOC2 | 6.3 | 19 | 59 | 4 | – | – | – | –
6 | Cc1c(NCCCN2CCN(c3nccc4ccc(F)cc34)CC2)c2ccccc2oc1=O | 1.3 | 16.9 | 2.2 | > 100 | – | – | – | –
7 | O=c1cc(NC[C@@H](O)CN2CCN(c3nccc4ccc(F)cc34)CC2)c2ccccc2o1 | 1.1 | 1.6 | 1.3 | 3 | 1 (≈ 2.23 µM) | 1 (≈ 2.23 µM) | 2 (≈ 4.46 µM) | 4 (≈ 8.92 µM)
8 | Cc1cccc2oc(=O)cc(NCCCN3CCN(c4nccc5ccc(F)cc45)CC3)c12 | 2.4 | 2.1 | 3.1 | > 100 | – | – | – | –
9 | O=c1cc(NCCCN2CCN(c3nccc4ccccc34)CC2)c2cc(F)ccc2o1 | 1.2 | 3.9 | 1.3 | 3.1 | 4 (≈ 9.25 µM) | 2 (≈ 4.62 µM) | 0.5 (≈ 1.16 µM) | –
10 | O=c1cc(NCCCN2CCN(c3nccc4ccc(F)cc34)CC2)c2c(o1)CCS(=O)(=O)C2 | 2.9 | 7.8 | 52.5 | 2.1 | – | – | – | –
11 | O=c1cc(OCCCN2CCN(c3nccc4ccccc34)CC2)c2ccccc2o1 | 6.2 | 28.3 | 22.6 | > 100 | – | – | – | –
12 | Cc1ccc2ccnc(N3CCN(CCCNc4cc(=O)oc5ccccc45)CC3)c2c1 | 2.6 | 9.6 | 3.8 | 52 | – | – | – | –
13 | O=c1nc(NC[C@@H](O)CN2CCN(c3nccc4ccc(F)cc34)CC2)c2ccccc2o1 | 1.5 | 0.6 | 0.4 | 0.3 | 0.25 (≈ 0.556 µM) | 1 (≈ 2.22 µM) | 4 (≈ 8.9 µM) | > 8
14 | Cc1cc2ccccc2c(N2CCN(CCCNc3cc(=O)oc4ccccc34)CC2)n1 | 4.8 | 33.1 | – | 7.5 | – | – | – | –
15 | O=c1cc(NCCCN2CCN(c3nccc4ccccc34)CC2)c2ccccc2o1 | 0.5 | 14 | 10 | 90 | > 32 | > 32 | 4 (≈ 9.65 µM) | > 32
16 | O=c1cc(NC[C@H](O)CN2CCN(c3nccc4ccc(F)cc34)CC2)c2ccccc2o1 | 1.8 | 1.5 | 1.1 | 1.7 | 1 (≈ 2.23 µM) | 0.5 (≈ 1.11 µM) | 4 (≈ 8.92 µM) | 8 (≈ 17.8 µM)
17 | O=c1cc(NCCCN2CCN(c3nc(F)cc4ccccc34)CC2)c2ccccc2o1 | 0.9 | 2.6 | 1.9 | 7.1 | 4 (≈ 9.25 µM) | 2 (≈ 4.62 µM) | 4 (≈ 9.25 µM) | 4 (≈ 9.25 µM)
18 | O=c1cc(NCCCN2CCN(c3nc(Cl)cc4ccccc34)CC2)c2ccccc2o1 | 2.3 | 12.1 | 3.2 | 10.2 | – | – | – | –
